Here are results for 24 compounds from ChEMBL document CHEMBL1124431, “Preparation and antitumor activity of additional mitomycin A analogues” (J Med Chem, 1989).

As usually defined, the logP is the decadic logarithm of the partition coefficient of the neutral form, usually between octanol and water. A high value points to a more lipophilic compound. The T/C is the result in the treated group divided by that in the control group, in per cent.

Data set [1] deals with P388. The experiment in a line: Minimum effective dose was determined on P388 leukemia cells in mice. The settings on record: for minimal effective dose: Mus musculus, P388, read-out: MED. It is filed as functional, Mus musculus.
Data set [2] in a line: Partition coefficient (logP). In kind it is physicochemical. The following applies: octanol/water.
For a further data set, the species on record is Mus musculus. The experiment in a line: log(1/C) was estimated in mice. The following applies: in vivo. In kind it is organism-based.
In data set [3] the test system is P388. The data set can be described thus: Maximal effect of the given optimal dose of 3.2 mg/kg against P388 leukemia cells in mice. In kind it is functional, Mus musculus.
The subject of data set [4] is P388. The experiment in a line: Maximal effect of the given optimal dose of 0.8 mg/kg against P388 leukemia cells in mice. In kind it is functional, Mus musculus.
In data set [5] the test system is P388. The experiment in a line: Maximal effect of the given optimal dose of 1.6 mg/kg against P388 leukemia cells in mice. It is filed as functional, Mus musculus.
The test system of data set [6] is P388. The data set can be described thus: Maximal effect of the given optimal dose of 0.4 mg/kg against P388 leukemia cells in mice. It is filed as functional, Mus musculus.
The test system of data set [7] is P388. The experiment in a line: Maximal effect of the given optimal dose of 12.8 mg/kg against P388 leukemia cells in mice. In kind it is functional, Mus musculus.
Data set [8] has as its system P388. The experiment in a line: Maximal effect of the given optimal dose of 6.4 mg/kg against P388 leukemia cells in mice. In kind it is functional, Mus musculus.
The test system of data set [9] is P388. The experiment in a line: Maximal effect of the given optimal dose of 0.2 mg/kg against P388 leukemia cells in mice. In kind it is functional, Mus musculus.

As for `CO[C@@]12C(COC(N)=O)C3=C(C(=O)C(C)=C(OCc4cccs4)C3=O)N1CC1NC12` (stereo partly specified), in the data set on P388 [1], the MED turned out to be 7.13e-06 M/kg and the minimal effective dose came to 3.2 mg/kg. In addition, the logP in [2] was 2.07. Further, the “Log 1/C” value in the data set listed under Mus musculus is listed as 5.15. Moreover, the T/C in the data set on P388 [3] came to 159%.
`COCC(C)OC1=C(C)C(=O)C2=C(C1=O)C(COC(N)=O)[C@@]1(OC)C3NC3CN21` (stereo partly specified): in the data set with P388 [1], the MED is 4.81e-07 M/kg and the minimal effective dose came to 0.2 mg/kg. The compound further registered a logP in data set [2] of 0.79. Moreover, the “Log 1/C” value in the data set listed under Mus musculus is reported as 6.21. Besides, the T/C in the data set on P388 [4] is recorded as 206%.
For `CCOCCOC1=C(C)C(=O)C2=C(C1=O)C(COC(N)=O)[C@@]1(OC)C3NC3CN21` (stereo partly specified), in the data set with P388 [1], the MED was found to be 4.65e-07 M/kg and the minimal effective dose stood at 0.2 mg/kg. In addition, the logP in [2] is 0.79. Besides, the “Log 1/C” value in the data set filed under Mus musculus is reported as 7.33. The compound further yielded a T/C in the data set on P388 [5] of 133%.
`CO[C@@]12C(COC(N)=O)C3=C(C(=O)C(C)=C(OCC4OCCO4)C3=O)N1CC1NC12` (stereo partly specified): in the data set with P388 [1], the MED was 5.88e-07 M/kg and the minimal effective dose is < 0.05 mg/kg. Besides, the lipophilicity (logP) in data set [2] is -0.18. In addition, the “Log 1/C” value in the data set listed under Mus musculus is reported as 7.23. This compound also returned a T/C with P388 [6] of 267%.
With `CO[C@@]12C(COC(N)=O)C3=C(C(=O)C(C)=C(OCCN4CCCCC4)C3=O)N1CC1NC12` (stereo partly specified), in the data set with P388 [1], the MED came to 8.71e-07 M/kg and the minimal effective dose was found to be 0.4 mg/kg. Moreover, in data set [2], the log partition coefficient (logP) amounted to 1.96. Also, in the data set listed under Mus musculus, the “Log 1/C” value is listed as 6.06. In the data set on P388 [7], the T/C turned out to be 191%.
Take `CO[C@@]12C(COC(N)=O)C3=C(C(=O)C(C)=C(OCCSC)C3=O)N1CC1NC12` (stereo partly specified): in the data set with P388 [1], the MED was determined as 9.57e-07 M/kg and the minimal effective dose turned out to be 0.4 mg/kg. The compound also displayed a logP in data set [2] of 1.37. Besides, the “Log 1/C” value in the data set listed under Mus musculus is listed as 6.02. Moreover, in the data set on P388 [5], the T/C stood at 165%.
Consider `CO[C@@]12C(COC(N)=O)C3=C(C(=O)C(C)=C(OCCCN4CCN(C)CC4)C3=O)N1CC1NC12` (stereo partly specified), for which, in the data set with P388 [1], the MED came to 1.265e-05 M/kg and the minimal effective dose is 6.4 mg/kg. Besides, the logP in [2] was 1.16. The “Log 1/C” value in the data set listed under Mus musculus is 4.9. Also, in the data set with P388 [7], the T/C was >167%.
Turning to `CO[C@@]12C(COC(N)=O)C3=C(C(=O)C(C)=C(OCCN4CCSCC4)C3=O)N1CC1NC12` (stereo partly specified), in the data set with P388 [1], the MED was 2.06e-07 M/kg and the minimal effective dose was determined as 0.1 mg/kg. Besides, the logP in [2] is 2.07. Further, in the data set listed under Mus musculus, the “Log 1/C” value is given as 6.67. Moreover, the T/C in the data set on P388 [8] is >172%.
`CCN1CCCC1CCOC1=C(C)C(=O)C2=C(C1=O)C(COC(N)=O)[C@@]1(OC)C3NC3CN21` (stereo partly specified): in the data set with P388 [1], the MED was found to be 1.09e-07 M/kg and the minimal effective dose is < 0.1 mg/kg. Moreover, the logP in data set [2] was found to be 1.96. Further, the “Log 1/C” value in the data set filed under Mus musculus is reported as 6.96. In addition, the T/C in the data set on P388 [7] was determined as 211%.
With `CO[C@@]12C(COC(N)=O)C3=C(C(=O)C(C)=C(OCCSCc4ccccc4)C3=O)N1CC1NC12` (stereo partly specified), in the data set with P388 [1], the MED was determined as 4.25e-07 M/kg and the minimal effective dose came to 0.2 mg/kg. This compound also registered a logP in data set [2] of 3.58. The “Log 1/C” value in the data set filed under Mus musculus is on record as 6.37. Further, the T/C in the data set on P388 [8] came to 156%.
On to `CO[C@@]12C(COC(N)=O)C3=C(C(=O)C(C)=C(OC/C=C/CO)C3=O)N1CC1NC12` (stereo partly specified), for which, in the data set with P388 [1], the MED turned out to be 4.83e-07 M/kg and the minimal effective dose is 0.2 mg/kg. Also, the log partition coefficient (logP) in data set [2] was determined as 0.46. Besides, the “Log 1/C” value in the data set listed under Mus musculus is on record as 6.21. This compound came in with a T/C in the data set on P388 [3] of 150%.
Compound `CO[C@@]12C(COC(N)=O)C3=C(C(=O)C(C)=C(OCCCN(CCO)CCO)C3=O)N1CC1NC12` (stereo partly specified) showed a T/C in the data set with P388 [9] of 106%. In addition, the logP in [2] is -0.28.
On to `CO[C@@]12C(COC(N)=O)C3=C(C(=O)C(C)=C(OC4CCN(C)CC4)C3=O)N1CC1NC12` (stereo partly specified), for which, in the data set on P388 [1], the MED is 7.1e-06 M/kg and the minimal effective dose amounted to 3.2 mg/kg. This compound displayed a logP in [2] of 1.46. In addition, the “Log 1/C” value in the data set listed under Mus musculus is recorded as 5.15. Moreover, the T/C in the data set with P388 [3] is on record as 155%.
Take `CO[C@@]12C(COC(N)=O)C3=C(C(=O)C(C)=C(OCc4ccccn4)C3=O)N1CC1NC12` (stereo partly specified): in the data set with P388 [1], the MED is 9.2e-07 M/kg and the minimal effective dose is 0.4 mg/kg. The logP in data set [2] was 0.91. In the data set listed under Mus musculus, the “Log 1/C” value is 6.04. Besides, in the data set on P388 [4], the T/C is 164%.
On to `CCSCC(O)COC1=C(C)C(=O)C2=C(C1=O)C(COC(N)=O)[C@@]1(OC)C3NC3CN21` (stereo partly specified), for which, in the data set on P388 [1], the MED came out at 4.33e-07 M/kg and the minimal effective dose is 0.2 mg/kg. Further, the lipophilicity (logP) in data set [2] was determined as 1.25. For the same compound, the “Log 1/C” value in the data set filed under Mus musculus is on record as 6.37. Besides, the T/C with P388 [3] is >322%.
As to `CO[C@@]12C(COC(N)=O)C3=C(C(=O)C(C)=C(OCCSCCSCCO)C3=O)N1CC1NC12` (stereo partly specified), in the data set on P388 [1], the MED was determined as 1.603e-06 M/kg and the minimal effective dose was 0.8 mg/kg. In addition, in [2], the logP worked out at 1.86. Moreover, the “Log 1/C” value in the data set filed under Mus musculus is recorded as 5.84. Also, the T/C in the data set with P388 [4] is given as 140%.
Consider `CO[C@@]12C(COC(N)=O)C3=C(C(=O)C(C)=C(OCCCSCCCO)C3=O)N1CC1NC12` (stereo partly specified), for which, in the data set with P388 [1], the MED was 1.02e-07 M/kg and the minimal effective dose is < 0.1 mg/kg. Besides, the logP in data set [2] was determined as 3.49. The “Log 1/C” value in the data set filed under Mus musculus was 6.98. In the data set with P388 [8], this compound came in with a T/C of 153%.
Take `CO[C@@]12C(COC(N)=O)C3=C(C(=O)C(C)=C(OCCNC(C)=O)C3=O)N1CC1NC12` (stereo partly specified): in the data set with P388 [1], the MED is 9.32e-07 M/kg and the minimal effective dose was 0.4 mg/kg. In [2], the logP is -0.21. In addition, the “Log 1/C” value in the data set listed under Mus musculus is reported as 6.03. The T/C with P388 [7] was found to be 150%.
Turning to `CCO[Si](CCCOC1=C(C)C(=O)C2=C(C1=O)C(COC(N)=O)[C@@]1(OC)C3NC3CN21)(OCC)OCC` (stereo partly specified), in the data set on P388 [1], the MED came to 3.59e-07 M/kg and the minimal effective dose is 0.2 mg/kg. Further, in the data set listed under Mus musculus, the “Log 1/C” value was 6.44. Further, the T/C in the data set with P388 [7] is given as 167%.
On to `CCOC(=O)CCCOC1=C(C)C(=O)C2=C(C1=O)C(COC(N)=O)[C@@]1(OC)C3NC3CN21` (stereo partly specified), for which, in the data set with P388 [1], the MED came to 1.41e-05 M/kg and the minimal effective dose was determined as 6.4 mg/kg. In [2], this compound had a lipophilicity (logP) of 1.49. Moreover, the “Log 1/C” value in the data set listed under Mus musculus is given as 4.85. Further, the T/C in the data set on P388 [7] amounted to 171%.
As for `CO[C@@]12C(COC(N)=O)C3=C(C(=O)C(C)=C(OCCC4CCCN4C)C3=O)N1CC1NC12` (stereo partly specified), in the data set on P388 [1], the MED stood at 7.033e-06 M/kg and the minimal effective dose is 3.2 mg/kg. In data set [2], this compound showed a lipophilicity (logP) of 1.46. For the same compound, the “Log 1/C” value in the data set listed under Mus musculus is listed as 5.21. Moreover, in the data set on P388 [7], the T/C is >156%.
`CO[C@@]12C(COC(N)=O)C3=C(C(=O)C(C)=C(OCCSc4ccccc4)C3=O)N1CC1NC12` (stereo partly specified): in the data set on P388 [1], the MED stood at 6.73e-06 M/kg and the minimal effective dose stood at 3.2 mg/kg. Besides, the logP in data set [2] came to 3.12. Also, the “Log 1/C” value in the data set listed under Mus musculus is 5.17. Besides, the T/C in the data set with P388 [7] stood at 130%.
With `CO[C@@]12C(COC(N)=O)C3=C(C(=O)C(C)=C(OCCOc4ccccc4)C3=O)N1CC1NC12` (stereo partly specified), in the data set with P388 [1], the MED was found to be 3.516e-06 M/kg and the minimal effective dose was determined as 1.6 mg/kg. Further, the logP in data set [2] was 2.39. For the same compound, the “Log 1/C” value in the data set listed under Mus musculus is listed as 5.45. This compound also yielded a T/C in the data set on P388 [3] of 130%.
Turning to `CO[C@@]12C(COC(N)=O)C3=C(C(=O)C(C)=C(OCC4CC4)C3=O)N1CC1NC12` (stereo partly specified), in the data set with P388 [1], the MED was found to be 1.028e-06 M/kg and the minimal effective dose came out at 0.4 mg/kg. Besides, the logP in data set [2] is 1.67. In addition, the “Log 1/C” value in the data set filed under Mus musculus is reported as 5.97. Also, the T/C in the data set on P388 [5] was found to be 144%.
